Test results as given in US8853274B1, “Compositions and methods for targeting glioblastomas cells” (Vanderbilt University, priority 2011, dated 2014).

How the values were obtained:
Type in all cases: cell-based, human
T4302 CD133+ cells [1] = assay: Caspase 3/7 activation (apoptosis); settings: for apoptotic cell death: following 3-Gy X-ray radiation, 2 μM DAPT or 0.5 μM L685,458
Method: (A) T4302 CD133+ GBM stem cells were enriched from freshly collected subcutaneous xenograft tumors, cultured in stem cell media. Cells were left unirradiated or irradiated at 3 Gy. The relative mRNA levels of Hes2 were determined by quantitative real-time PCR at the time points as indicated. (B) T4302 CD133+ cells were pre-treated with vehicle (DMSO), 2 μM DAPT or 0.5 μM L685,458 for 4 hours and irradiated as indicated. Cells were then plated to form neurospheres. Fourteen days after plating, neurospheres containing more than 50 cells were scored. To determine the surviving fractions, the number of neurosphere at each radiation dose was normalized to that of the corresponding sham-irradiated group. (C) T4302 CD133+ cells were treated with GSIs±radiation as indicated. Relative caspase 3/7 activities were determined by normalizing caspase activities to the corresponding cell numbers. (D), (E) T4302 CD133+ cells were infected with lentivirus directing expression of non-targeting shRNA or shRNAs specific to Notch1 or Notch2 (KD-Notch1 or KD-Notch2), and selected with puromycin. Relative caspase 3/7 activities and clonogenic survival were determined as described above. (F) T4302 CD133+ cells were infected with control lentivirus or lentivirus directing expression of NICD2. Clonogenic survival was determined as described above. *: p<0.05 by Student's t-test; #: p<0.01 by one-way ANOVA.
(A, B) T4302 CD133+ cells were treated with 100 nM RO4929097 (GSI) and/or 100 nM tipifarnib (FTI) for 4 hours prior to 3 Gy radiation. (A) Cell growth on day 5 and (B) caspase 3/7 activation on day 3 were determined as described in FIG. 4. #: p<0.001 by one-way ANOVA, combo vs. single agents. (C) The effects of GSIs and FTI against growth of T4302 CD133− cells were determined as described in panel A. (D, E) T4302 CD133+ cells were treated with GSI, FTI, or a 1:1 mixture at different concentrations (ranging from 3000 nM to ˜0.5 nM, 1:3 dilution)±3 Gy radiation. Cell viability was determined at 5 days after treatment in comparison to vehicle-treated groups. […] (F) T4302 CD 133+ cells were treated by GSI±FTI with a 2-fold dilution. Neurospheres were countered on day 10, and normalized to the vehicle-treated group.

CD133+ GBM stem cells = assay: Growth inhibition within 5 days, panel of glioblastoma xenograft samples; settings: 5-day period; in combination with 3 Gy radiation
Method: CD133+ cells were derived from multiple glioblastoma xenograft samples as indicated. The growth inhibitory effects by GSI and/or FTIs were determined as described in FIG. 5.
Therefore, effective killing of GBM stem cells may delay or even prevent tumor recurrence. […] In combination with radiation, GSIs or FTIs alone reduced cell numbers by ˜75%.

GBM 44 = assay: Growth inhibition at day 5, spheroid GBM culture
Method: (A) Known genetic features of selected GBM samples. WT: wild type; Amp: amplification; vIII: EGFRvIII; ND: not determined. (B) Spheroid GBM cultures were derived from freshly collected subcutaneous tumors and cultured for 2 weeks in stem cell media to enrich stem cell-like cancer cells. SF7225 was maintained as a primary spheroid culture. Growth inhibition at day 5 after treatment was determined as described in FIG. 5. *: p<0.01 by Student's t-test and growth inhibition ≧30% vs. the corresponding vehicle-treated groups. #: p<0.01 and >30% growth inhibition vs. the radiation only groups.
Work is now extended to a set of subcutaneous GBM xenografts (GBM) established by Dr. Jann Sarkaria and colleagues at Mayo Clinic. These samples are known to have mutational status of EGFR, p53 and PTEN and different radiosensitivity (FIG. 8A) (69-71). Because the cancer stem cell identity of CD133+ of the Mayo Clinic samples has not been validated by functional assays, the present inventor used the neurosphere culture that is widely utilized as a surrogate of GSCs for its ability to enrich GSC-like population (72, 73). Tumor response to GSI, FTI and/or radiation was determined as growth inhibition on day 5 after treatment, with a greater than 30% cell number reduction was defined as positive response mimicking the RECIST criteria (FIG. 8B). […] Therefore, the present inventor will continuously expand the GBM panel and determine the genomic features of all samples with focus on prevalent GBM-associated aberrations. On the basis of this molecularly characterized tumor panel, the present inventor will start to explore the potential biomarkers that may predict tumor response to the combination therapy of radiation, GSI and FTI by experiments described in herein.

T4302 CD133+ cells [2] = assay: Neurosphere formation (clonogenic survival); settings: following 3-Gy X-ray radiation; 2 μM DAPT or 0.5 μM L685,458, 4 h pre-treatment
Method: (A) T4302 CD133+ GBM stem cells were enriched from freshly collected subcutaneous xenograft tumors, cultured in stem cell media. Cells were left unirradiated or irradiated at 3 Gy. The relative mRNA levels of Hes2 were determined by quantitative real-time PCR at the time points as indicated. (B) T4302 CD133+ cells were pre-treated with vehicle (DMSO), 2 μM DAPT or 0.5 μM L685,458 for 4 hours and irradiated as indicated. Cells were then plated to form neurospheres. Fourteen days after plating, neurospheres containing more than 50 cells were scored. […] Relative caspase 3/7 activities were determined by normalizing caspase activities to the corresponding cell numbers. […] Relative caspase 3/7 activities and clonogenic survival were determined as described above. […] Clonogenic survival was determined as described above. *: p<0.05 by Student's t-test; #: p<0.01 by one-way ANOVA.
(A, B) T4302 CD133+ cells were treated with 100 nM RO4929097 (GSI) and/or 100 nM tipifarnib (FTI) for 4 hours prior to 3 Gy radiation. (A) Cell growth on day 5 and (B) caspase 3/7 activation on day 3 were determined as described in FIG. 4. #: p<0.001 by one-way ANOVA, combo vs. single agents. […] Cell viability was determined at 5 days after treatment in comparison to vehicle-treated groups. […]

SMILES | increase of caspase 3/7 activity compared with the sham-treated group (T4302 CD133+ cells [1]; following 3-Gy radiation, 100 nM, day 3) | growth inhibition / reduction of cell numbers (CD133+ GBM stem cells) | growth inhibition on day 5 (GBM 44; 0 Gy) | growth inhibition on day 5 (GBM 44; 3 Gy) | clonogenic survival (T4302 CD133+ cells [2]) | apoptotic cell death (T4302 CD133+ cells [1])
Cn1cncc1[C@@](N)(c1ccc(Cl)cc1)c1ccc2c(c1)c(-c1cccc(Cl)c1)cc(=O)n2C [tipifarnib] | approximately 2 fold | ~75% | 23.4±6.4% | 42±7.2% | – | –
C[C@H](NC(=O)Cc1cc(F)cc(F)c1)C(=O)N[C@H](C(=O)OC(C)(C)C)c1ccccc1 [DAPT] | – | – | – | – | reduced clonogenic survival | increased apoptotic cell death
CC(C)C[C@H](NC(=O)[C@H](Cc1ccccc1)C[C@@H](O)[C@H](Cc1ccccc1)NC(=O)OC(C)(C)C)C(=O)N[C@@H](Cc1ccccc1)C(N)=O [L-685,458] | – | – | – | – | reduced clonogenic survival | increased apoptotic cell death
